Results on 2 compounds are retold here after US12723063B2, “GIPR-agonist compounds” (Eli Lilly and Company, priority 2019, dated 2026).

In general, Ki refers to the dissociation constant of the complex between target and ligand, obtained from inhibition or displacement.

Each structure is given as a SMILES string. *1 amine or outer side, *2 acyl side, *3 side chain or, on linkers, in order; H or OH if unused. Where a SMILES comes first, the peptide text is derived from it. Side-chain parts run from the residue outwards. [ ]: non-standard residue; d: D form. The star is where a group is joined. C20 diacid = O=C(O)CCCCCCCCCCCCCCCCCCC(=O)*; αMePhe(2-F) = C[C@](N)(Cc1ccccc1F)C(=O)O; γGlu = O=C(O)[C@H](CCC(=O)[*:2])N[*:1]; 4Pal = N[C@@H](Cc1ccncc1)C(=O)O; αMeL = CC(C)C[C@](C)(N)C(=O)O; Orn = NCCC[C@H](N)C(=O)O; AEEA = NCCOCCOCC(=O)O; Aib = CC(C)(N)C(=O)O

In one assay the target is T1, human GcgR (Homo sapiens, UniProt P47871).
T1 construct: expressed in transfected cells; crude membranes
T1 sequence (P47871 26-477): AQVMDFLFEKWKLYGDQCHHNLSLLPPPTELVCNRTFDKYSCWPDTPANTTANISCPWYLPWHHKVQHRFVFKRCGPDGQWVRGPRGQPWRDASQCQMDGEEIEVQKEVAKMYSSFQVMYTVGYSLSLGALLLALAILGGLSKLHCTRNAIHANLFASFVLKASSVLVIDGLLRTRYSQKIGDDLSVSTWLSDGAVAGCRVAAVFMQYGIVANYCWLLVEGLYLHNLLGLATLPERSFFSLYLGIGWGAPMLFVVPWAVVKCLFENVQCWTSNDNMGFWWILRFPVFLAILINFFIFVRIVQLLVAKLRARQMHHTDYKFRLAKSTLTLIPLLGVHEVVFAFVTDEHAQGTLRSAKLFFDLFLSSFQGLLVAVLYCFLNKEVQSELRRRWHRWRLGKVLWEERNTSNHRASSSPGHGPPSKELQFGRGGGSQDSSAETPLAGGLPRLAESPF
Put plainly: [125I]-Glucagon binding, SPA with WGA beads, 0.1% bacitracin. The settings on record: geometric mean, read-out: hGcgR Ki. A digest of the protocol: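 SPA competition binding with WGA beads on crude membranes from HEK293 cells stably expressing hGcgR. Buffer: 25 mM HEPES pH 7.4, 2.5 mM CaCl2, 1 mM MgCl2, 0.1% bacitracin, 0.003% Tween-20; 10-point 3-fold dilutions, NSB with 1 μM Gcg.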

The target of the next assay is T2, human GIPR (Homo sapiens, UniProt P48546).
T2 construct: expressed in transfected cells; crude membranes
T2 sequence (P48546 22-466): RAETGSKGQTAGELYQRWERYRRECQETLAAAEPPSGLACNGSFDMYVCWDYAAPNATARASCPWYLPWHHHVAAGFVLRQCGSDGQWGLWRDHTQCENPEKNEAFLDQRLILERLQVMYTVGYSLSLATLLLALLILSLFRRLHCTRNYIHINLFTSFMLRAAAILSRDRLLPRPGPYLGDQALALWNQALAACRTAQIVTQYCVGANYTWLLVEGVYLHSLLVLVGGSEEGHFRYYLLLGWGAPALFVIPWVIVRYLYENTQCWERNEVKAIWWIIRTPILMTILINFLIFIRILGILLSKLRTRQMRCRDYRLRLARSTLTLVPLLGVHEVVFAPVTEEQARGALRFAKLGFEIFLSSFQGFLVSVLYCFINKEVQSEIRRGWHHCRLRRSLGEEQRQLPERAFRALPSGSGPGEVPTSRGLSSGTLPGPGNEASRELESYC
In words: [125I]-GIP binding, SPA with WGA beads, 0.1% bacitracin. The settings on record: geometric mean, read-out: hGIPR Ki. A digest of the protocol: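 Ki values are geometric means (SEM, n independent days), derived from four-parameter nonlinear regression of IC50. Membranes came from hGIPR-expressing CHO cells.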

With `CC[C@H](C)[C@H](NC(=O)[C@H](CO)NC(=O)[C@H](Cc1ccc(O)cc1)NC(=O)[C@H](CC(=O)O)NC(=O)[C@H](CO)NC(=O)[C@@H](NC(=O)[C@](C)(Cc1ccccc1F)NC(=O)[C@@H](NC(=O)CNC(=O)[C@H](CCC(=O)O)NC(=O)C(C)(C)NC(=O)[C@@H](N)Cc1ccc(O)cc1)[C@@H](C)O)[C@@H](C)CC)C(=O)N[C@@H](CC(C)C)C(=O)N[C@@H](CC(C)C)C(=O)N[C@@H](CC(=O)O)C(=O)N[C@@H](CCCCN)C(=O)N[C@H](C(=O)N[C@@H](Cc1c[nH]cn1)C(=O)N[C@@H](CCC(N)=O)C(=O)NC(C)(C)C(=O)N[C@@H](CC(=O)O)C(=O)N[C@@H](Cc1ccccc1)C(=O)N[C@H](C(=O)N[C@@H](CCC(=O)O)C(=O)N[C@@H](Cc1ccncc1)C(=O)N[C@@H](CCCCNC(=O)COCCOCCNC(=O)COCCOCCNC(=O)CC[C@H](NC(=O)CCCCCCCCCCCCCCCCCCC(=O)O)C(=O)O)C(=O)N[C@@H](CC(C)C)C(=O)N[C@@H](CCC(=O)O)C(=O)N[C@@H](CCC(N)=O)C(=O)NCC(=O)N1CCC[C@H]1C(=O)N[C@@H](CO)C(=O)N[C@@H](CO)C(=O)NCC(=O)N[C@@H](C)C(=O)N1CCC[C@H]1C(=O)N1CCC[C@H]1C(=O)N1CCC[C@H]1C(=O)N[C@@H](CO)C(N)=O)C(C)C)[C@@H](C)CC` [Example 121] (H-Y[Aib]EGT[αMePhe(2-F)]ISDYSILLDKIHQ[Aib]DFVE[4Pal]K([AEEA-AEEA-γGlu-C20 diacid])LEQGPSSGAPPPS-NH2), the figures for the Ki on human GcgR and at human GIPR were 94.9 nM and 0.103 nM, respectively.

Turning to `CC[C@H](C)[C@H](NC(=O)[C@H](CCCN)NC(=O)[C@H](CC(=O)O)NC(=O)[C@H](CC(C)C)NC(=O)[C@](C)(CC(C)C)NC(=O)[C@@H](NC(=O)[C@H](CO)NC(=O)[C@H](Cc1ccc(O)cc1)NC(=O)[C@H](CC(=O)O)NC(=O)[C@H](CO)NC(=O)[C@@H](NC(=O)[C@H](Cc1ccccc1)NC(=O)[C@@H](NC(=O)CNC(=O)[C@H](CCC(=O)O)NC(=O)C(C)(C)NC(=O)[C@@H](N)Cc1ccc(O)cc1)[C@@H](C)O)[C@@H](C)CC)[C@@H](C)CC)C(=O)N[C@@H](Cc1c[nH]cn1)C(=O)N[C@@H](CCC(N)=O)C(=O)NC(C)(C)C(=O)N[C@@H](CCC(=O)O)C(=O)N[C@@H](Cc1ccccc1)C(=O)N[C@H](C(=O)N[C@@H](CCC(=O)O)C(=O)N[C@@H](Cc1ccncc1)C(=O)N[C@@H](CCCCNC(=O)COCCOCCNC(=O)COCCOCCNC(=O)CC[C@H](NC(=O)CCCCCCCCCCCCCCCCCCC(=O)O)C(=O)O)C(=O)N[C@@H](CC(C)C)C(=O)N[C@@H](CCC(=O)O)C(=O)N[C@@H](C)C(=O)NCC(=O)N1CCC[C@H]1C(=O)N[C@@H](CO)C(=O)N[C@@H](CO)C(=O)NCC(=O)N[C@@H](C)C(=O)N1CCC[C@H]1C(=O)N1CCC[C@H]1C(=O)N1CCC[C@H]1C(=O)N[C@@H](CO)C(N)=O)C(C)C` [Example 122] (H-Y[Aib]EGTFISDYSI[αMeL]LD[Orn]IHQ[Aib]EFVE[4Pal]K([AEEA-AEEA-γGlu-C20 diacid])LEAGPSSGAPPPS-NH2), the Ki is 957 nM on human GcgR and 0.0311 nM on human GIPR.
